Experimental data taken from patent US20250197409A1, “BIFUNCTIONAL COMPOUND AND PHARMACEUTICAL COMPOSITION COMPRISING THE BIFUNCTIONAL COMPOUND, AND METHOD FOR TREATING ANDROGEN RECEPTOR RELATED DISEASE BY USING THE SAME” (ANHORN MEDICINES CO., LTD., priority 2022, published 2025).
Where two headings read alike, the source gives them in different places.

Target: T1, androgen receptor (Homo sapiens, UniProt P10275, T878A)
T1 construct: host or cells: LNCaP.FGC
Assay: Androgen receptor degradation assay using Western blot analysis
Format: cell-based
Summary of the method: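 LNCaP.FGC cells (2×10^5/well) treated with 10-fold serial dilutions in RPMI from 100 nM stock; untreated cells as negative control. AR Western signal normalized to GAPDH, expressed as % remaining versus untreated (100%). DC50 derived from calibration curve of serial dilutions.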

[1] = 24 h, read-out: Androgen Receptor Remaining (%), LNCaP.FGC cells, 100 nM, 24 hr, normalized to GAPDH, untreated cells = 100%
[2] = read-out: AR DC50 (concentration needed for 50% AR degradation); LNCaP.FGC cells, serial 10x dilutions from 100 nM
[3] = LNCaP.FGC cells, serial 10x dilutions from 100 nM; read-out: AR DC50 (concentration needed for 50% AR degradation)

T1 sequence (P10275 whole entry T878A): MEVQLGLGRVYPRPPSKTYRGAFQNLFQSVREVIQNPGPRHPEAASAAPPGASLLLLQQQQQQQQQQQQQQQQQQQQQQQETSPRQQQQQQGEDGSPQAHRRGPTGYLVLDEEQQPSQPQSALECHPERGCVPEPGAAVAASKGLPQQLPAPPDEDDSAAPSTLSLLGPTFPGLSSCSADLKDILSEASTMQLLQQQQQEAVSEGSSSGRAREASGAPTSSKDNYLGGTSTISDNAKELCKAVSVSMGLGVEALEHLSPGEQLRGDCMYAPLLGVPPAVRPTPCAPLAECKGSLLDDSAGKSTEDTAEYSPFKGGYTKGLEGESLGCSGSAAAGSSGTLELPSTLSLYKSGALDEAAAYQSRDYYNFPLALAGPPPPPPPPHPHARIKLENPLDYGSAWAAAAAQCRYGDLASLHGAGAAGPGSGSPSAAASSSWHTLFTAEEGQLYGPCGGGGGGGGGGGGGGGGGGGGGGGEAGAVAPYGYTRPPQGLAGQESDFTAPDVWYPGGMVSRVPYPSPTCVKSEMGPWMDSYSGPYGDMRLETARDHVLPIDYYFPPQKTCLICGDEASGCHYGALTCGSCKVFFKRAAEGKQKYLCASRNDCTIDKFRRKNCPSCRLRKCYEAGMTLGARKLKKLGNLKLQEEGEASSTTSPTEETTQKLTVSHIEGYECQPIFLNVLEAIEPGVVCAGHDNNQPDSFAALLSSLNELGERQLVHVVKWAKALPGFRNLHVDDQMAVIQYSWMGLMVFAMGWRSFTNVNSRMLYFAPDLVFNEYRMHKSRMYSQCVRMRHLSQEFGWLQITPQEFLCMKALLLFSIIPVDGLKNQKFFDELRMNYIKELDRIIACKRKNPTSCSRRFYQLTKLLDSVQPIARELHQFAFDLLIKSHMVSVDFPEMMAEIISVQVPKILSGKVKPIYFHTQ
T1 sequence (Q96SW2 whole entry partner): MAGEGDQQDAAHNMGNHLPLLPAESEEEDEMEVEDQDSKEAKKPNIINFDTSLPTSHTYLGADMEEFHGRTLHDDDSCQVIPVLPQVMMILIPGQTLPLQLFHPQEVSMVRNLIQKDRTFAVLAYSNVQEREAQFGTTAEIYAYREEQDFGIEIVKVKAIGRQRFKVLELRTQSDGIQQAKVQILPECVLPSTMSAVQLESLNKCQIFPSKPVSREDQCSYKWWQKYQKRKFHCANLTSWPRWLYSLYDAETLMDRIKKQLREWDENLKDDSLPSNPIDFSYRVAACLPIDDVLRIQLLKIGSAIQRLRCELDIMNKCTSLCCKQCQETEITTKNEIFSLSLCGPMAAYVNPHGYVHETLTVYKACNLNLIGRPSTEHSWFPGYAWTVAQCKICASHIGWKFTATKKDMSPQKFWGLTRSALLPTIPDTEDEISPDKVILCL

Row | remaining activity at 0.1 µM (24 h, LNCaP.FGC cells, 100 nM, 24 hr, normalized to GAPDH, untreated cells = 100%; read-out: Androgen Receptor Remaining (%)) [%] | DC50 [3] [nM] | SMILES | remaining activity at 0.1 µM [1] [%] | DC50 [2] [nM]
1 |  |  | CCn1c2c(c3ccc(OCCOCC4CCN(c5ccc(C(=O)N[C@H]6CC[C@H](Oc7ccc(C#N)c(Cl)c7)CC6)nn5)CC4)cc31)C(=O)N(C1CCC(=O)NC1=O)C2=O (stereo partly drawn) [Compound 138] | 39 | 25 to 100
2 |  |  | CCn1c2c(c3cc(OCCN4CCC(C#Cc5ccc(C(=O)NC6C(C)(C)C(Oc7ccc(C#N)c(Cl)c7)C6(C)C)cc5)CC4)ccc31)C(=O)N(C1CCC(=O)NC1=O)C2=O (stereo not drawn) [Compound 139] | 52 | 25 to 100
3 |  |  | CCn1c2c(c3ccc(OCCC4CCN(c5ccc(C(=O)N[C@H]6CC[C@H](N(C)c7ccc(C#N)c(Cl)c7)CC6)nn5)CC4)cc31)C(=O)N(C1CCC(=O)NC1=O)C2=O (stereo partly drawn) [Compound 140] | 32 | 25 to 100
4 |  |  | CCn1c2c(c3ccc(OCC(=O)NCC4CCN(c5ccc(C(=O)N[C@H]6CC[C@H](N(C)c7ccc(C#N)c(Cl)c7)CC6)nn5)CC4)cc31)C(=O)N(C1CCC(=O)C(CO)C1=O)C2=O (stereo partly drawn) [Compound 141] | 49 | 25 to 100
5 |  |  | CCn1c2c(c3ccc(OCC(=O)NCC4CCN(c5ccc(C(=O)N[C@H]6CC[C@H](N(C)c7ccc(C#N)c(Cl)c7)CC6)nn5)CC4)cc31)C(=O)N(C1CCC(=O)NC1=O)C2=O (stereo partly drawn) [Compound 142] | 49 | 25 to 100
6 |  |  | CCn1c2c(c3ccc(OC(=O)NC4CCN(c5ccc(C(=O)N[C@H]6CC[C@H](N(C)c7ccc(C#N)c(Cl)c7)CC6)nn5)CC4)cc31)C(=O)N(C1CCC(=O)NC1=O)C2=O (stereo partly drawn) [Compound 144] | 86 | 
7 |  |  | CCn1c2c(c3ccc(OCC(=O)N4CC5(CCN(c6ccc(C(=O)N[C@H]7CC[C@H](N(C)c8ccc(C#N)c(Cl)c8)CC7)nn6)C5)C4)cc31)C(=O)N(C1CCC(=O)N(CO)C1=O)C2=O (stereo partly drawn) [Compound 145] | 62 | 
8 |  |  | CCn1c2c(c3ccc(OCC(=O)N4CC5(CCN(c6ccc(C(=O)N[C@H]7CC[C@H](N(C)c8ccc(C#N)c(Cl)c8)CC7)nn6)C5)C4)cc31)C(=O)N(C1CCC(=O)NC1=O)C2=O (stereo partly drawn) [Compound 146] | 62 | 
9 |  |  | CCn1c2c(c3ccc(OCCOC4CC5(CCN(c6ccc(C(=O)N[C@H]7CC[C@H](Oc8ccc(C#N)c(Cl)c8)CC7)nn6)CC5)C4)cc31)C(=O)N(C1CCC(=O)NC1=O)C2=O (stereo partly drawn) [Compound 147] | 46 | 10 to 25
10 |  |  | CCn1c2c(c3ccc(OCCOC4CC5(CCN(c6ccc(C(=O)N[C@H]7CC[C@H](N(C)c8ccc(C#N)c(Cl)c8)CC7)nn6)CC5)C4)cc31)C(=O)N(C1CCC(=O)NC1=O)C2=O (stereo partly drawn) [Compound 148] | 30 | 10 to 25
11 |  |  | CCn1c2c(c3ccc(OCCCCN4CCN(c5ccc(C(=O)N[C@H]6CC[C@H](Oc7ccc(C#N)c(Cl)c7)CC6)nn5)CC4=O)cc31)C(=O)N(C1CCC(=O)NC1=O)C2=O (stereo partly drawn) [Compound 149] | 11 | 
12 |  |  | CCn1c2c(c3ccc(OCCCCN4CCN(c5ccc(C(=O)N[C@H]6CC[C@H](N(C)c7ccc(C#N)c(Cl)c7)CC6)nn5)CC4=O)cc31)C(=O)N(C1CCC(=O)NC1=O)C2=O (stereo partly drawn) [Compound 150] | 40 | 
13 |  |  | CCn1c2c(c3ccc(OCCCN4CCN(c5ccc(C(=O)N[C@H]6CC[C@H](Oc7ccc(C#N)c(Cl)c7)CC6)nn5)CC4=O)cc31)C(=O)N(C1CCC(=O)NC1=O)C2=O (stereo partly drawn) [Compound 151] | 57 | 
14 |  |  | CCn1c2c(c3ccc(OCCOC4CCC5(CC4)CN(c4ccc(C(=O)N[C@H]6CC[C@H](Oc7ccc(C#N)c(Cl)c7)CC6)nn4)C5)cc31)C(=O)N(C1CCC(=O)NC1=O)C2=O (stereo partly drawn) [Compound 152] | 45 | 25 to 100
15 |  |  | CCn1c2c(c3ccc(OCCOC4CCN(c5ccc(C(=O)N[C@H]6CC[C@H](Oc7ccc(C#N)c(Cl)c7)CC6)nn5)CC4)cc31)C(=O)N(C1CCC(=O)NC1=O)C2=O (stereo partly drawn) [Compound 153] | 109 | 10 to 25
16 |  |  | CCn1c2c(c3ccc(OCCOC4CCN(c5ccc(C(=O)N[C@H]6CC[C@H](N(C)c7ccc(C#N)c(Cl)c7)CC6)nn5)CC4)cc31)C(=O)N(C1CCC(=O)NC1=O)C2=O (stereo partly drawn) [Compound 154] | 33 | 10 to 25
17 |  |  | CCn1c2c(c3ccc(OCCCOC4CCN(c5ccc(C(=O)N[C@H]6CC[C@H](N(C)c7ccc(C#N)c(Cl)c7)CC6)nn5)CC4)cc31)C(=O)N(C1CCC(=O)NC1=O)C2=O (stereo partly drawn) [Compound 155] | 19 | 10 to 25
18 |  |  | CCn1c2c(c3ccc(OCCOC4CCC5(CC4)CN(c4ccc(C(=O)N[C@H]6CC[C@H](N(C)c7ccc(C#N)c(Cl)c7)CC6)nn4)C5)cc31)C(=O)N(C1CCC(=O)NC1=O)C2=O (stereo partly drawn) [Compound 156] | 37 | 25 to 100
19 |  |  | CCn1c2c(c3ccc(OCCCN4CCC(C5CCN(c6ccc(C(=O)N[C@H]7CC[C@H](Oc8ccc(C#N)c(Cl)c8)CC7)nn6)CC5)CC4)cc31)C(=O)N(C1CCC(=O)NC1=O)C2=O (stereo partly drawn) [Compound 157] | 18 | 10 to 25
20 |  |  | CCn1c2c(c3ccc(OCCN4CCC(C5CCN(c6ccc(C(=O)N[C@H]7CC[C@H](Oc8ccc(C#N)c(Cl)c8)CC7)nn6)CC5)CC4)cc31)C(=O)N(C1CCC(=O)NC1=O)C2=O (stereo partly drawn) [Compound 158] | 13 | 10 to 25

Row | remaining activity at 0.1 µM (24 h, LNCaP.FGC cells, 100 nM, 24 hr, normalized to GAPDH, untreated cells = 100%; read-out: Androgen Receptor Remaining (%)) [%] | DC50 [3] [nM] | SMILES | remaining activity at 0.1 µM [1] [%] | DC50 [2] [nM]
21 |  |  | CCn1c2c(c3ccc(OCCCOC4CCN(c5ccc(C(=O)N[C@H]6CC[C@H](Oc7ccc(C#N)c(Cl)c7)CC6)nn5)CC4)cc31)C(=O)N(C1CCC(=O)NC1=O)C2=O (stereo partly drawn) [Compound 159] | 8 | 25 to 100
22 |  |  | CCn1c2c(c3ccc(OCCCN4CCC5(C4)CN(c4ccc(C(=O)N[C@H]6CC[C@H](Oc7ccc(C#N)c(Cl)c7)CC6)nn4)C5)cc31)C(=O)N(C1CCC(=O)NC1=O)C2=O (stereo partly drawn) [Compound 160] | 17 | < 10
23 |  |  | CCn1c2c(c3ccc(OCCN4CCC5(C4)CN(c4ccc(C(=O)N[C@H]6CC[C@H](Oc7ccc(C#N)c(Cl)c7)CC6)nn4)C5)cc31)C(=O)N(C1CCC(=O)NC1=O)C2=O (stereo partly drawn) [Compound 161] | 31 | 10 to 25
24 |  |  | CCn1c2c(c3ccc(OCCOC4CC5(CCN(c6ccc(C(=O)N[C@H]7CC[C@H](Oc8ccc(C#N)c(Cl)c8)CC7)nn6)C5)C4)cc31)C(=O)N(C1CCC(=O)NC1=O)C2=O (stereo partly drawn) [Compound 162] | 29 | 25 to 100
25 |  |  | CCn1c2c(c3ccc(OCCCC4CCN(c5ccc(C(=O)N[C@H]6CC[C@H](Oc7ccc(C#N)c(Cl)c7)CC6)nn5)CC4)cc31)C(=O)N(C1CCC(=O)NC1=O)C2=O (stereo partly drawn) [Compound 163] | 41 | 
26 |  |  | CCn1c2c(c3ccc(OCCOC4CC5(CCN(c6ccc(C(=O)N[C@H]7CC[C@H](N(C)c8ccc(C#N)c(Cl)c8)CC7)nn6)C5)C4)cc31)C(=O)N(C1CCC(=O)NC1=O)C2=O (stereo partly drawn) [Compound 164] | 31 | 10 to 25
27 |  |  | CCn1c2c(c3ccc(OCCCC4CCN(c5ccc(C(=O)N[C@H]6CC[C@H](N(C)c7ccc(C#N)c(Cl)c7)CC6)nn5)CC4)cc31)C(=O)N(C1CCC(=O)NC1=O)C2=O (stereo partly drawn) [Compound 165] | 77 | 
28 |  |  | CCn1c2c(c3ccc(OCCN4CCC(C5CCN(c6ccc(C(=O)N[C@H]7CC[C@H](N(C)c8ccc(C#N)c(Cl)c8)CC7)nn6)CC5)CC4)cc31)C(=O)N(C1CCC(=O)NC1=O)C2=O (stereo partly drawn) [Compound 166] | 47 | 
29 |  |  | CCn1c2c(c3ccc(OCCCN4CCC(C5CCN(c6ccc(C(=O)N[C@H]7CC[C@H](N(C)c8ccc(C#N)c(Cl)c8)CC7)nn6)CC5)CC4)cc31)C(=O)N(C1CCC(=O)NC1=O)C2=O (stereo partly drawn) [Compound 167] | 78 | 
30 | 20 | 10 to 25 | Cn1c2c(c3ccc(OCCOC4CCN(c5ccc(C(=O)N[C@H]6CC[C@H](Oc7ccc(C#N)c(Cl)c7)CC6)nn5)CC4)cc31)C(=O)N(C1CCC(=O)NC1=O)C2=O (stereo partly drawn) [Compound 168] |  | 
31 |  |  | Cn1c2c(c3ccc(OCCOC4CCN(c5ccc(C(=O)N[C@H]6CC[C@H](N(C)c7ccc(C#N)c(Cl)c7)CC6)nn5)CC4)cc31)C(=O)N(C1CCC(=O)NC1=O)C2=O (stereo partly drawn) [Compound 169] | 27 | 10 to 25
32 |  | 25 to 100 | Cn1c2c(c3ccc(OCCOC4CC5(CCN(c6ccc(C(=O)N[C@H]7CC[C@H](Oc8ccc(C#N)c(Cl)c8)CC7)nn6)CC5)C4)cc31)C(=O)N(C1CCC(=O)NC1=O)C2=O (stereo partly drawn) [Compound 170] |  | 
33 |  |  | Cn1c2c(c3ccc(OCCOC4CC5(CCN(c6ccc(C(=O)N[C@H]7CC[C@H](N(C)c8ccc(C#N)c(Cl)c8)CC7)nn6)CC5)C4)cc31)C(=O)N(C1CCC(=O)NC1=O)C2=O (stereo partly drawn) [Compound 171] |  | 25 to 100
34 |  |  | CCn1c2c(c3ccc(OCCCOC4CC5(CCN(c6ccc(C(=O)N[C@H]7CC[C@H](Oc8ccc(C#N)c(Cl)c8)CC7)nn6)CC5)C4)cc31)C(=O)N(C1CCC(=O)NC1=O)C2=O (stereo partly drawn) [Compound 172] |  | 25 to 100
35 |  | 25 to 100 | Cn1c2c(c3ccc(OCCOC4CC5(CCN(c6ccc(C(=O)N[C@H]7CC[C@H](Oc8ccc(C#N)c(Cl)c8)CC7)nn6)C5)C4)cc31)C(=O)N(C1CCC(=O)NC1=O)C2=O (stereo partly drawn) [Compound 174] |  | 
36 |  |  | Cn1c2c(c3ccc(OCCOC4CC5(CCN(c6ccc(C(=O)N[C@H]7CC[C@H](N(C)c8ccc(C#N)c(Cl)c8)CC7)nn6)C5)C4)cc31)C(=O)N(C1CCC(=O)NC1=O)C2=O (stereo partly drawn) [Compound 175] |  | 10 to 25
37 |  |  | CCn1c2c(c3ccc(OCCCOC4CC5(CCN(c6ccc(C(=O)N[C@H]7CC[C@H](Oc8ccc(C#N)c(Cl)c8)CC7)nn6)C5)C4)cc31)C(=O)N(C1CCC(=O)NC1=O)C2=O (stereo partly drawn) [Compound 176] |  | 25 to 100
38 |  |  | CCn1c2c(c3ccc(OCCCOC4CC5(CCN(c6ccc(C(=O)N[C@H]7CC[C@H](N(C)c8ccc(C#N)c(Cl)c8)CC7)nn6)C5)C4)cc31)C(=O)N(C1CCC(=O)NC1=O)C2=O (stereo partly drawn) [Compound 177] |  | 25 to 100
39 |  |  | Cn1c2c(c3ccc(OCCCOC4CC5(CCN(c6ccc(C(=O)N[C@H]7CC[C@H](N(C)c8ccc(C#N)c(Cl)c8)CC7)nn6)C5)C4)cc31)C(=O)N(C1CCC(=O)NC1=O)C2=O (stereo partly drawn) [Compound 178] |  | 10 to 25
